Laboratory results as given in article PMC9780857 (International Journal of Molecular Sciences, 2022).
Like-named read-outs stand apart in the source and are kept apart here.

Assays:
[1] = molecular target: T1, hOCT2 (Homo sapiens, UniProt O15244); experiment: Inhibition of hOCT2-mediated 14C-metformin uptake in transfected HEK293 cells; type: cell-based; set-up: expressed in transfected cells; host or cells: HEK293 (stably transfected)
T1 sequence (O15244 1-555): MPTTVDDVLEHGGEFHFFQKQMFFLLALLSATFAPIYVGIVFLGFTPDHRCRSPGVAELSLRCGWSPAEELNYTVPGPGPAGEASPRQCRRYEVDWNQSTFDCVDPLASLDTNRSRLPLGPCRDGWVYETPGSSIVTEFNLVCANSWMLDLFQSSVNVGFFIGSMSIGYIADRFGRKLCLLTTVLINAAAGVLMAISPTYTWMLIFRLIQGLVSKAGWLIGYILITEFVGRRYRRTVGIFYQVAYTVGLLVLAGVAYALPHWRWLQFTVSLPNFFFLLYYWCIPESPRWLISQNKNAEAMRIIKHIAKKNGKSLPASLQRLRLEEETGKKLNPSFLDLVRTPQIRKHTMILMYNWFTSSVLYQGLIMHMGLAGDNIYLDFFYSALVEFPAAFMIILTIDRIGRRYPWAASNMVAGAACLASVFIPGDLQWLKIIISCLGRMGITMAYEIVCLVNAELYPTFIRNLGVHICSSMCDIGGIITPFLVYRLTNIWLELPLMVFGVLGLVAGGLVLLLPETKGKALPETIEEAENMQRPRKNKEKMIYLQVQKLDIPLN
Description: (§1) The uptake assays were performed as previously described in 24-well plates. […] After incubation, the uptake was stopped by aspirating the reaction mixture and washing the cells three times with 0.4 mL ice-cold PBS buffer. Cells were then solubilized with 0.6 mL of 1 N NaOH, overnight. The whole content of each well (0.6 mL) was transferred to a scintillation vial (Perkin Elmer). The radio-labelled amount was determined by liquid scintillation counting.
(§2) All inhibition experiments were conducted on at least two separate days in triplicate.
(§3) For screening experiments, cis-inhibition was carried out in duplicate by measuring the uptake of the labeled probe substrate in the absence and presence of 10 µM or 100 µM of the respective pesticide or drug. […] Inhibitory effects in percent were calculated from net-uptake. […]

[2] = molecular target: T2, mOct2 (Mus musculus, UniProt O70577); experiment: Inhibition of mOct2-mediated 14C-metformin uptake in transfected HEK293 cells; type: cell-based; set-up: expressed in transfected cells; host or cells: HEK293 (stably transfected)
T2 sequence (O70577 1-553): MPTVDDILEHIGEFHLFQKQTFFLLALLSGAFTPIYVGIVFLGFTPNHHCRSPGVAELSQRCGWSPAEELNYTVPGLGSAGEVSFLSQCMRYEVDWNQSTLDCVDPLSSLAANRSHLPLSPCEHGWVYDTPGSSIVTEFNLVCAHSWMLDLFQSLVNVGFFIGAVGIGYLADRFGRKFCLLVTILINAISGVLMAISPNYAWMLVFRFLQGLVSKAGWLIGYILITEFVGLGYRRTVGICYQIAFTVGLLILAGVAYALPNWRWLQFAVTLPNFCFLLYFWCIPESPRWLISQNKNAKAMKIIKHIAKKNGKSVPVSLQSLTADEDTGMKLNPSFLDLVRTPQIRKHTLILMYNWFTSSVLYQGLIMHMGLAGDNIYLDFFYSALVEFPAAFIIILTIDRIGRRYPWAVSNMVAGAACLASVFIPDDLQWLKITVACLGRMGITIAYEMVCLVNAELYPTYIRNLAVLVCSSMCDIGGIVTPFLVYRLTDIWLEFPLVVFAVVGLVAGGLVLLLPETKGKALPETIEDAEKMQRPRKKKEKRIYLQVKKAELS
Description: as §1, §2, §3

[3] = substrate: C[n+]1ccc(-c2ccccc2)cc1; experiment: cells, lysate or membranes; conditions: other: substrate, metformin 2 min, MPP 1 min, 37 °C, pH 7.4
[4] = HEK293, read-out: Inhibitory Effects (%) hOCT2 10 µM Mean
[5] = HEK293, read-out: Inhibitory Effects (%) hOCT2 100 µM Mean
[6] = HEK293, read-out: Inhibitory Effects (%) mOct2 10 µM Mean
[7] = HEK293, read-out: Inhibitory Effects (%) mOct2 100 µM Mean
[8] = HEK293, 10 µM test compound, 1 µM [14C]metformin, 2 min, HEK293, negative = stimulation, read-out: Inhibitory Effects (%) mOct2 10 µM Mean
[9] = HEK293, 100 µM test compound, 1 µM [14C]metformin, 2 min, HEK293, negative = stimulation, read-out: Inhibitory Effects (%) mOct2 100 µM Mean

Molecule: CO/C=C(/C(=O)OC)c1ccccc1Oc1cc(Oc2ccccc2C#N)ncn1 [Azoxystrobin]
- Inhibitory Effects (%) hOCT2 10 µM Mean ([1]; 10 µM test compound; 1 µM [14C]metformin, 2 min, HEK293; negative = stimulation): −40%
- Inhibitory Effects (%) hOCT2 100 µM Mean ([1]; 100 µM test compound; 1 µM [14C]metformin, 2 min, HEK293; negative = stimulation): −14%
- Inhibitory Effects (%) mOct2 10 µM Mean ([2]; 10 µM test compound, 1 µM [14C]metformin, 2 min, HEK293, negative = stimulation): −6%
- Inhibitory Effects (%) mOct2 100 µM Mean ([2]; 100 µM test compound, 1 µM [14C]metformin, 2 min, HEK293, negative = stimulation): −17%

Molecule: Cc1ccc(/N=C/N(C)/C=N/c2ccc(C)cc2C)c(C)c1 [Amitraz]
- inhibition at 10 µM [1, 4]: -98%
- inhibition at 100 µM [1, 5]: -96%
- inhibition at 10 µM [2, 6]: -33%
- inhibition at 100 µM [2, 7]: -12%

Molecule: O[C@@H](COc1cccc2ncccc12)CN1CCN([C@@H]2c3ccccc3[C@@H]3[C@H](c4ccccc42)C3(F)F)CC1 [Zosuquidar]
- inhibition at 10 µM ([1]; HEK293, 10 µM test compound; 1 µM [14C]metformin, 2 min, HEK293; negative = stimulation; read-out: Inhibitory Effects (%) hOCT2 10 µM Mean): -10%
- inhibition at 100 µM ([1]; HEK293, 100 µM test compound; 1 µM [14C]metformin, 2 min, HEK293; negative = stimulation; read-out: Inhibitory Effects (%) hOCT2 100 µM Mean): -47%
- inhibition at 10 µM [2, 8]: -11%
- inhibition at 100 µM [2, 9]: -30%

Molecule: CCNc1nc(Cl)nc(NC(C)C)n1 [Atrazin]
- inhibition at 10 µM [1, 4]: -57%
- inhibition at 100 µM [1, 5]: -53%
- inhibition at 10 µM [2, 6]: -44%
- inhibition at 100 µM [2, 7]: -27%

Molecule: C=C[C@H]1C[N@@]2CC[C@H]1C[C@@H]2[C@@H](O)c1ccnc2ccc(OC)cc12 [Quinidine]
- inhibition at 10 µM ([1]; HEK293; read-out: Inhibitory Effects (%) hOCT2 10 µM Mean): -50%
- inhibition at 100 µM ([1]; HEK293; read-out: Inhibitory Effects (%) hOCT2 100 µM Mean): -31%
- inhibition at 10 µM [2, 8]: -38%
- inhibition at 100 µM [2, 9]: -28%

Molecule: CCCN(CCOc1c(Cl)cc(Cl)cc1Cl)C(=O)n1ccnc1 [Prochloraz]
- inhibition at 10 µM [1, 4]: -43%
- inhibition at 100 µM [1, 5]: -17%
- inhibition at 10 µM [2, 6]: -13%
- inhibition at 100 µM [2, 7]: 10%

B1: mOct2 (Mus musculus) (protein)
chain: MPTVDDILEHIGEFHLFQKQTFFLLALLSGAFTPIYVGIVFLGFTPNHHCRSPGVAELSQRCGWSPAEELNYTVPGLGSAGEVSFLSQCMRYEVDWNQSTLDCVDPLSSLAANRSHLPLSPCEHGWVYDTPGSSIVTEFNLVCAHSWMLDLFQSLVNVGFFIGAVGIGYLADRFGRKFCLLVTILINAISGVLMAISPNYAWMLVFRFLQGLVSKAGWLIGYILITEFVGLGYRRTVGICYQIAFTVGLLILAGVAYALPNWRWLQFAVTLPNFCFLLYFWCIPESPRWLISQNKNAKAMKIIKHIAKKNGKSVPVSLQSLTADEDTGMKLNPSFLDLVRTPQIRKHTLILMYNWFTSSVLYQGLIMHMGLAGDNIYLDFFYSALVEFPAAFIIILTIDRIGRRYPWAVSNMVAGAACLASVFIPDDLQWLKITVACLGRMGITIAYEMVCLVNAELYPTYIRNLAVLVCSSMCDIGGIVTPFLVYRLTDIWLEFPLVVFAVVGLVAGGLVLLLPETKGKALPETIEDAEKMQRPRKKKEKRIYLQVKKAELS
- Km [3]: 40 µM

B2: hOCT2 (Homo sapiens) (protein)
chain: MPTTVDDVLEHGGEFHFFQKQMFFLLALLSATFAPIYVGIVFLGFTPDHRCRSPGVAELSLRCGWSPAEELNYTVPGPGPAGEASPRQCRRYEVDWNQSTFDCVDPLASLDTNRSRLPLGPCRDGWVYETPGSSIVTEFNLVCANSWMLDLFQSSVNVGFFIGSMSIGYIADRFGRKLCLLTTVLINAAAGVLMAISPTYTWMLIFRLIQGLVSKAGWLIGYILITEFVGRRYRRTVGIFYQVAYTVGLLVLAGVAYALPHWRWLQFTVSLPNFFFLLYYWCIPESPRWLISQNKNAEAMRIIKHIAKKNGKSLPASLQRLRLEEETGKKLNPSFLDLVRTPQIRKHTMILMYNWFTSSVLYQGLIMHMGLAGDNIYLDFFYSALVEFPAAFMIILTIDRIGRRYPWAASNMVAGAACLASVFIPGDLQWLKIIISCLGRMGITMAYEIVCLVNAELYPTFIRNLGVHICSSMCDIGGIITPFLVYRLTNIWLELPLMVFGVLGLVAGGLVLLLPETKGKALPETIEEAENMQRPRKNKEKMIYLQVQKLDIPLN
- Km [3]: 62 µM
